≈ marks a conversion by molar mass, not a printed value.
Experiments:
PDE 3 = PDE 3 (Homo sapiens, UniProt Q14432); test: PDE 3 enzyme inhibition (SPA); format: biochemical, healthy volunteers; conditions: PDE 3 from platelet rich plasma; 3H-cAMP; read-out: PDE 3-5 IC 50 (nM): PDE 3
Experimental: (§1) PDE 3 and PDE 5 enzymes were purified from platelet rich plasma (PRP) obtained from healthy volunteers.
(§2) PDE 3 and PDE 5 enzymes were purified according to Simpson A. W. M. et al. (Biochem. Pharmacol. 1988, 37, 2315-2320) partially modified for the FPLC technique (Fast Protein Liquid Chromatography).
(§3) The PRP was diluted 1:2 in saline solution and centrifuged at 2000×g for 15 minutes at room temperature.
(§4) The pellet was suspended in 10 ml of lysis solution (155 mM NH4Cl, 10 mM KHCO3 and 0.1 mM Na2EDTA pH 7.4) and incubated for 10 minutes on ice-bath to remove erythrocyte contamination.
(§5) After centrifugation, platelets were suspended in 10 ml of 20 mM Bis-Tris, 2 mM EDTA, 5 mM β-mercaptoethanol, 50 mM sodium acetate, 2 mM benzamidine) and homogenised with a Polytron homogeniser on ice-bath.
(§6) The homogenate was centrifuged and the supernatant applied to a UNO Q12 column connected to a Biologic Chromatography system (FPLC, BIO RAD).
(§7) PDE 3 and PDE 5 enzymes were eluted with a linear 0.05-1M sodium acetate gradient and the elution fractions were collected for PDE enzymes activity assay.
(§8) Fractions containing PDE activities were pooled, dialysed overnight against distilled water and concentrated 10 times by an Amicon filtration system (using YM10 membrane filter). Ethylene glycol was added to a final concentration of 30% v/v and the solution stored at −20° C.
(§9) Enzymatic activity was stable for several weeks under these conditions.
(§10) Enzymes activity assay were performed using Scintillation Proximity Assay (SPA) Amersham kit consisting of tracer ^3H-cAMP for PDE3 or ^3H-cGMP for PDE5, PDE assay buffer (10×solution: 500 mM TRIS/HCl pH 7.5, 83 mM MgCl2 and 17 mM EGTA) and Yttrium SPA PDE beads (containing 18 mM zinc sulphate).
(§11) The radioactivity of the beads was measured using a scintillation counter (Packard model MINAXI β TRI-CARB 4000 SERIES).

PDE 5 = PDE 5 (Homo sapiens, UniProt O76074); test: PDE 5 enzyme inhibition (SPA); format: biochemical, healthy volunteers; conditions: PDE 5 from platelet rich plasma; 3H-cGMP; read-out: PDE 3-5 IC 50 (nM): PDE 5
Experimental: as §1, §2, §3, §4, §5, §6, §7, §8, §9, §10, §11

[1] = Solubility test by HPLC in PBS pH 7.4; format: physicochemical; conditions: PBS pH 7.4, HPLC against standard, compounds of formula I; for solubility kinetic: PBS (phosphate buffer saline), aqueous buffer, kinetic from dmso stock
Experimental: HPLC method used to test the solubility.
Solubility test was performed by HPLC analysis (column 4.6×15 mm) water/0.1% TFA —CH3CN/0.06% TFA gradient) against standard.
A […] solution of the substance dissolved in DMSO was prepared.
In order to prepare the sample 190 μl of PBS (Phosphate Buffer Saline, pH 7.4) were added to 10 μl of the above solution; instead (while) in order to prepare the standard 190 μl of DMSO to other 10 μl of solution were added.

[2] = Pharmacokinetic study in rats; format: in vivo; conditions: for PK rat t/2: 10 mg/kg oral or 3 mg/kg intravenously, mixture of 3-5 compounds; for bioavailability: plasma, rat, oral 10 mg/kg in N-methylglucosamine/PG/Tween 80 (physiologic vehicle), read-out: PK rat % F
Experimental: A mixture containing 3-5 compounds according to what described by Ward K. W. et al. (Drug Metab. Dispos. 2001, vol. 29, 82-88) was administered to rats at 10 mg/kg dosage by oral route (1 mg/ml in 77% N-methylglucosamine 25 mM and 20% PG containing 3% Tween 80) or 3 mg/kg intravenously (3 mg/ml in 15% DMSO/85% PEG).
The animals received only one treatment per study.
The rats permanently implanted with jugular catheter (Silastic®, Dow Corning) were treated with the test mixture by an intravenous bolus (via implanted catheter) or by oral gavage. Blood samples were collected from the jugular catheter at different times up to 6 h after administration.
Plasma samples were analyzed after protein precipitation by two volumes of CH3CN and plasma concentrations were determined by liquid chromatography/mass spectrometry.
Being poor the solubility of the compounds comprised in the general formula of the international patent application WO 00/05218, it was necessary to performe the pharmacokinetic studies using a 15% DMSO/85% PEG solution of the compounds both for intravenous and for oral route, i.e. by an absolutely non physiological vehicle.

PDE 3, sequence (Q14432 674-1093 limits assumed): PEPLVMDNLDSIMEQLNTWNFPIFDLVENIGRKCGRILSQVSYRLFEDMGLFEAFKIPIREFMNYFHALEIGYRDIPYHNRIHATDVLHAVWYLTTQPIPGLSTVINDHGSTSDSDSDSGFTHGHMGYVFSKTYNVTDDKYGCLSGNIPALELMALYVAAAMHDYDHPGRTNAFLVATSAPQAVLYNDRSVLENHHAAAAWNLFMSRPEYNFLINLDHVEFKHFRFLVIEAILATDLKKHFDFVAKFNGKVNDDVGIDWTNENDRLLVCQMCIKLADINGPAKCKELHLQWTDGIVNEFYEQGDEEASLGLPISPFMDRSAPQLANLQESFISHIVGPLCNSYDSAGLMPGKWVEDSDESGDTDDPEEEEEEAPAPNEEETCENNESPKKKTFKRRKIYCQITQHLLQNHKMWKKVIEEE

| IC50 (PDE 3) | IC50 (PDE 5) | solubility kinetic [1] | Sol. [1] | PK rat t/2 [2] | bioavailability [2] | Compound |
| --- | --- | --- | --- | --- | --- | --- |
| > 10000 nM | > 10000 nM | 216 µg/mL (≈ 491 µM) | 482.14 µM | 132 min | 43% | COc1ccc2c(Cc3c(Cl)cncc3Cl)nnc(-c3cccc(C(=O)O)c3)c2c1 [Compound 2, 3-[4-(3,5-dichloro-pyridin-4-ylmethyl)-7-methoxy-phthalazin-1-yl]-benzoic Acid] |
| > 10000 nM | > 10000 nM | 470 µg/mL (≈ 987 µM) | 987.39 µM | 66 min | 41% | O=C(O)c1cccc(-c2nnc(Cc3c(Cl)cncc3Cl)c3ccc(OC(F)F)cc23)c1 [Compound 8, 3-[4-(3,5-dichloro-pyridin-4-ylmethyl)-7-difluoromethoxy-phthalazin-1-yl]-benzoic Acid] |
| > 10000 nM | > 10000 nM | 253 µg/mL (≈ 567 µM) | 567.26 µM | 21 min | 7% | COc1ccc2c(Cc3c(Cl)cncc3Cl)nnc(-c3sccc3C(=O)O)c2c1 [Compound 10, 2-[4-(3,5-dichloro-pyridin-4-ylmethyl)-7-methoxy-phthalazin-1-yl]-thiophene-3-carboxylic Acid] |

— patent US20060166996A1, “Phthalazine derivatives as phosphodiesterase 4 inhibitors” (Zambon Group S.P.A., priority 2002, published 2006)
